Several values for one entry are separate records, joined by “and”; a condition that tells them apart may be missing. Equal entries are not always repeated. Entries after “also recorded” stand apart in the source; their conditions may differ. Where two headings read alike, the source gives them in different places.
What was measured:
[1] = system: fluorescent AGEs (human serum albumin glycated with D-fructose and glucose); experiment: Non-enzymatic glycation of HSA, determination of fluorescent AGEs; type: biochemical; conditions: for The inhibition rate of fluorescent AGE 360/453 nm (%): single replicate
Protocol: The anti-glycative ability of samples were assessed by measuring the amounts of fluorescent AGEs. 100 μL human serum albumin (4 mg/ml HSA) was glycated with 100 μL D-fructose (0.05 mol/L) and 100 μL glucose (0.05 mol/L) in the presence of samples in potassium phosphate buffer (0.2 mol/L, pH7.4, 0.06% NaN3) and incubated at 50° C. for […]. The incubated solutions were then used for the following assays. Rutin was the positive control.
The fluorescence intensity of the incubated solutions under the λex/λem=360/453 nm was recorded on microplate reader. The inhibition rate of fluorescent AGEs was calculated by the following equation: […]
where A1 is the fluorescence intensity of glycation system without samples; A2 is the fluorescence intensity of glycation system without HSA and samples; A3 is the fluorescence intensity of glycation system with HSA, sugar and samples; and A4 is the fluorescence intensity of glycation system without HSA.

DPPH· scavenging assay = type: biochemical
[2] = FRAP total antioxidant capacity assay; type: biochemical
Protocol: Fast colourimetric methods were slightly modified for the in vitro assessment of DPPH· scavenging, ABTS·+ decolourisation capacity, and total antioxidant capacity of FRAP. The stock solutions of derivatisation reagents were diluted as follows before measurement: DPPH was diluted with absolute ethanol until the absorbance was 0.8±0.05 at λ=517 nm. ABTS working solution was prepared with phosphate buffer (0.2 M, pH 7.4) to display absorbance of 0.8±0.05 at λ=729 nm, based on a previous study. The FRAP solution was prepared according to the instructions of the FRAP kit. Absorbances were measured using an automatic microplate reader (Molecular Group Ltd., USA), and all analyses were performed using 96-well plates. All measurements were performed in triplicate, and Trolox was used as a positive control.
For total antioxidant capacity, 180 μl of FRAP solution was mixed with 5 μl of sample solution, and the absorbance was measured after 5 min at […] with PBS as the negative control. FeSO4 solutions (0.15, 0.3, 0.6, 0.9, 1.2, and 1.5 mM) were used for the calibration curve. The FRAP value represents the corresponding concentration of FeSO4 solutions (mM FeSO4). The regression equation from the standard curve was used to calculate the equivalent concentration 1 (EC1) of each sample. EC1 is defined as the concentration of the test sample with an absorbance equivalent to that of 1.0 mmol/L of FeSO4 solution, determined by its calibration curve.

COX-2 = biological target: T1, COX-2 (Homo sapiens, UniProt P35354); experiment: Anti-COX-2 assay (COX-2 Inhibitor Screening Kit); type: biochemical
T1 construct: purchased Beyotime S0168
T1 sequence (P35354 18-604): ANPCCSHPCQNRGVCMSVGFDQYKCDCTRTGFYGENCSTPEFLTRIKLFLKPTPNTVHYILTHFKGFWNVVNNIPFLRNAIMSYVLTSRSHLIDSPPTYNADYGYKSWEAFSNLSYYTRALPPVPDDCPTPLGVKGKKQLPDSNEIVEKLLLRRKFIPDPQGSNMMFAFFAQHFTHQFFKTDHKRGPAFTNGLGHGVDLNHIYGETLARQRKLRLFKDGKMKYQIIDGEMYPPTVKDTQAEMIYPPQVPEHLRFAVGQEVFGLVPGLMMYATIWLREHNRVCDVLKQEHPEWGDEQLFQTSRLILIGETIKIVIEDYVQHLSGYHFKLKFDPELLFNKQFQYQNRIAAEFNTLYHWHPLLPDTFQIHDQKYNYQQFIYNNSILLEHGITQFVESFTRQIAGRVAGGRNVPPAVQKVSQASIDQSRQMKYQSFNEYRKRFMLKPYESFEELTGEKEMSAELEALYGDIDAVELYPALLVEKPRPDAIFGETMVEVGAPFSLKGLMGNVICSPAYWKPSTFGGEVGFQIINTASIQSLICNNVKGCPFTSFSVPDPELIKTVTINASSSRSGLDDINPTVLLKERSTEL
Protocol: Anti-inflammatory activity was assessed by measuring COX-2 enzymatic inhibition on the basis of a described method by using the COX-2 Inhibitor Screening Kit (Beyotime, No. S0168). Celecoxib, a COX-2 inhibitor, was used as a positive control.

[3] = system: fluorescent AGEs (BSA-fructose/glucose system); experiment: Fluorescent AGEs formation in a BSA-fructose/glucose system; type: biochemical, bovine; conditions: read-out: IC50, AGE formation
Protocol: The formation of total fluorescent AGEs in glycated samples was assessed by determining their fluorescent intensities at an excitation/emission wavelength of 350/450 nm, as previously described. Glycated protein was prepared in vitro by incubating BSA in the presence of D-glucose (GLC) and D-fructose (FRC). The DOF extract and specific standards were dissolved in DMSO:water (1:4). BSA (4 mg/ml, 100 μl) was preliminary mixed with 50 μl of GLC (0.5 M) and 50 μl of FRC (0.5 M) in 20 mM sodium phosphate buffer (pH 7.4), and then 100 μl samples were added in the 96-well plate and incubated at 37.5° C. for 7 days. All solutions were prepared under sterile conditions and filtered using a 0.22-μm syringe before incubation. The assay was performed in triplicate, and AG was used as a positive control.

[4] = Online UPLC-PDA-MS-ABTS·+ scavenging (post-column derivatisation); type: biochemical; conditions: online profiling of DOF extract
Protocol: Online identification of antioxidant components of DOF extract was performed using a UPLC system (Milford, MA, USA) consisting of a Waters photodiode array detector and a Waters postcolumn derivatisation system supplying fresh ABTS solution (UPLC-PDA-QDa-ABTS). […] The detection wavelengths were set at 280 and 734 nm, and the injection volume of the sample was 10 μl.
To detect radical scavengers, the UPLC system was coupled with a Waters pump, which supplied freshly prepared ABTS·+ solution into a reaction coil (15 m, 0.25 mm ID) with a flow rate of 0.2 ml/min at 37° C. Negative peaks were recorded based on a decrease of absorbance at 729 nm after the reaction of individual compounds with the ABTS·+ radical. For preliminary identification of compounds, a Waters Acquity QDa mass detector in negative ionisation mode was connected in series to PDA with the following parameters: electrospray ion source; cone voltage, 15 V; atomiser, N2; and scanning range, 100-800 m/z.

type I collagen [5] = experiment: Collagen type I in HDFs by immunofluorescence; type: cell-based, human; conditions: positive drug, VC 200 μg/ml, 48 h, IF
Protocol: (§1) HDFs were cultured in DMEM with 10% (v/v) FBS and 1% PS at 37° C. in a humidified 5% CO2 incubator. Cells were subcultured using pancreatin solution after reaching confluence. All experiments were performed between the third and eighth passages.
(§2) The synthesis of collagen types I and III was detected using IF and ELISA. HDFs were digested and seeded in a 24-well culture plate on slides at a density of 50,000 cells/well in a complete medium. After reaching 80% confluency, cells were starved with the medium in the absence of serum for 16 h. Cells were then treated with positive controls or active samples (prepared in medium without serum) for an additional 48 h. For analysis and visualisation of types I and III collagens, the supernatants and remaining cell slides were both collected and analysed using ELISA kits and the IF staining method, respectively.
(§3) Collected supernatants were centrifuged at 10,000 rpm for 10 min and used for types I and III collagen ELISA, according to the manufacturer's protocol. The remaining cell slides were washed once with PBS and fixed in polyformaldehyde overnight at 4° C. Subsequently, the slides were treated with 0.5% Triton-X100 for 5 min. After washing, cells were blocked with 1% BSA at room temperature for 1 h. […] ImageJ software was used to quantify collagen expression from different images randomly selected in each group.

type III collagen = experiment: Collagen type III in HDFs by immunofluorescence; type: cell-based, human; conditions: positive drug, VC 200 μg/ml, 48 h, IF
Protocol: as §1, §2, §3

type I collagen [6] = experiment: Extracellular collagen type I of HDFs by ELISA; type: cell-based, human; conditions: VC, 48 h, culture medium
Protocol: as §1, §2, §3

## C[C@@H]1O[C@@H](OC[C@H]2O[C@@H](Oc3c(-c4ccc(O)c(O)c4)oc4cc(O)cc(O)c4c3=O)[C@H](O)[C@@H](O)[C@@H]2O)[C@H](O)[C@H](O)[C@H]1O [Compound 24, Rutin]
[1]; 3.125 μg/ml
  Average % inhibition: 2.02%
  The inhibition rate of fluorescent AGE 360/453 nm (%): 2.34% and −3.34% and 7.07%
[1]; 6.25 μg/ml
  Average % inhibition: 22.00%
  The inhibition rate of fluorescent AGE 360/453 nm (%): 18.13% and 25.69% and 22.17%
[1]; 12.5 μg/ml
  Average % inhibition: 41.15%
  The inhibition rate of fluorescent AGE 360/453 nm (%): 35.84% and 42.05% and 45.57%
[1]; 25 μg/ml
  Average % inhibition: 61.91%
  The inhibition rate of fluorescent AGE 360/453 nm (%): 55.85% and 64.92% and 64.97%
[1]; 50 μg/ml
  Average % inhibition: 75.80%
  The inhibition rate of fluorescent AGE 360/453 nm (%): 74.72% and 79.59% and 73.08%
[1]; 100 μg/ml
  Average % inhibition: 81.90%
  The inhibition rate of fluorescent AGE 360/453 nm (%): 81.88% and 81.51% and 82.32%
[1]; 200 μg/ml
  Average % inhibition: 85.69%
  The inhibition rate of fluorescent AGE 360/453 nm (%): 84.54% and 85.94% and 86.58%
[1]; 400 μg/ml
  Average % inhibition: 91.19%
  The inhibition rate of fluorescent AGE 360/453 nm (%): 90.91% and 91.13% and 91.53%
DPPH· scavenging assay
  antioxidant ability by DPPH (in words): great antioxidant potency
DPPH· scavenging assay; listed as rutin
  antioxidant ability by DPPH (in words): selective and significant antioxidant abilities
[2]
  antioxidant ability by FRAP (in words): great antioxidant potency
[2]; Table 11, mean ± SD, n = 3
  FRAP EC1: 205 µM
[2]; listed as rutin
  antioxidant ability by FRAP (in words): selective and significant antioxidant abilities
COX-2
  COX-2 inhibition (in words): great COX-2 inhibition; also recorded: outstanding COX-2 inhibitory effects
COX-2; listed as rutin
  COX-2 inhibition (in words): potent COX-2 inhibitory capacity
[3]
  IC50: 222 ± 13.5 µM
[4]
  ABTS radical scavenging by size of negative peaks at 734 nm (in words): strongest ABTS radical scavengers

## O=C1O[C@H]([C@@H](O)CO)C(O)=C1O [vitamin C]
Type I collagen [5]
  Collagen type I expression, % of control: 190.20 % of control
Type III collagen
  Collagen type III expression, % of control: 125.90 % of control
Type I collagen [6]
  increase of secreted collagen type I levels: 21.94%
